We go through 11 compounds from patent publication US5227490A, “Fibrinogen receptor antagonists” (Merck & Co., Inc., priority 1992, dated 1993).

For orientation: IC50 means the concentration that inhibits the measured activity by half.

One experiment deals with human platelets. The experiment can be described thus: ADP-stimulated platelet aggregation assay (gel-filtered human platelets). The format is cell-based. Conditions: fibrinogen, CaCl2 1 mM, ADP-initiated, initial rate of increase of light transmittance, read-out: IC50 (inhibition of platelet aggregation). The source says: In addition to the following preparative procedures, several examples of in-vitro bioactivity of compounds within the scope of the present invention are indicated. To illustrate, one test which is used to evaluate fibrinogen receptor antagonist activity is based on evaluation of inhibition of ADP-stimulated platelets. Aggregation requires that fibrinogen bind to and occupy the platelet fibrinogen receptor site. Inhibitors of fibrinogen binding inhibit aggregation. In the ADP-stimulated platelet aggregation assay used to determine inhibition associated with the compounds claimed in the instant invention, human platelets are isolated from fresh blood, collected into acid citrate/dextrose by differential centrifugation followed by gel filtration on Sepharose 2 B in divalent ion-free Tyrode's buffer (pH 7.4) containing 2% bovine serum albumin.
Platelet aggregation is measured at 37° C. in a Chronolog aggregometer. The reaction mixture contains gel-filtered human platelets (2×10^8 per ml), fibrinogen (100 micrograms per ml (ug/ml)), Ca^2+ (1 mM), and the compound to be tested. The aggregation is initiated by adding 10 μM ADP 1 minute after the other components are added. The reaction is then allowed to proceed for at least 2 minutes. The extent of inhibition of aggregation is expressed as the percentage of the rate of aggregation observed in the absence of inhibitor. The IC50 is the dose of a particular compound inhibiting aggregation by 50% relative to a control lacking the compound.
The test procedures employed to measure the anti-platelet aggregating activity of the compounds of the present invention are described below.
Blood was drawn into 0.1 volumes of acid citrate-dextrose (85 mM sodium citrate, 64 mM citric acid, 110 mM dextrose) by venipuncture from normal human volunteers. Platelet-rich plasma was prepared by centrifugation at 400× g for 12 minutes. PGEl (5 mg/ml) was added and platelets were collected by centrifugation at 800× g for 12 minutes. The platelet pellet was resuspended into human platelet buffer (140 mM NaCl, 7.9 mM KCl, 3.3 mM Na2 HPO4, 6 mM HEPES, 2% bovine serum albumin, 0.1% dextrose, pH 7.2) and filtered over Sepharose 2B that was previously equilibrated in human platelet buffer. Human fibrinogen ([…]) and Ca Cl2 (1 mM) were added and aggregation was initiated by the addition of […]. Aggregation was monitored by the initial rate of increase of light transmittance.

The subject of a further experiment is gpIIb/IIIa complex. Particulars: snake venom polypeptides; cited from earlier work.
Experiment [1] concerns fibronectin and vitronectin. Conditions: cited from earlier work.

Turning to `O=C(NCC(Cc1ccc(OCCCCC2CCNCC2)cc1)C(=O)O)c1ccccc1` (centres unmarked) [CH2 NHC(O)Ph, 2-[4-(4-Piperidin-4-yl)butyloxy]phenylmethyl-3-(benzoylamino)propanoic acid], in the experiment on human platelets, the IC50 worked out at 3.1 µM.
For the compound `O=C(O)C(CNCc1ccccc1)Cc1ccc(OCCCCC2CCNCC2)cc1` (centres unmarked) [CH2 NHCH2 Ph, 2-[4-(4-Piperidin-4-yl)butyloxy]phenylmethyl-3-(benzylamino)propanoic acid], the IC50 in the experiment with human platelets was 18 µM.
As to `CCCCS(=O)(=O)NCC(Cc1ccc(OCCCCC2CCNCC2)cc1)C(=O)O` (centres unmarked) [CH2 NHSO2 C4 H9, 2-[4-(4-Piperindin-4-yl)butyloxy]phenylmethyl-3-(n-butylsulfonylamino)propanoic acid], in the experiment on human platelets, the IC50 was determined as 2.9 µM.
As for `O=C(O)C(Cc1ccccc1)Cc1ccc(OCCCCC2CCNCC2)cc1` (centres unmarked) [CH2 Ph, 3-[4-(4-Piperidin-4-yl)butyloxyphenyl]-2-(benzyl)propanoic acid], in the experiment with human platelets, the IC50 was 115 µM.
As to `CCCCS(=O)(=O)CC(Cc1ccc(OCCCCC2CCNCC2)cc1)C(=O)O` (centres unmarked) [CH2 SO2 C4 H9, 2-[4-(4-Piperidin-4-yl)butyloxy]phenylmethyl-3-(n-butylsulfonyl)propanoic acid], the IC50 in the experiment on human platelets was found to be 0.65 µM.
`O=C(O)C(Cc1ccc(OCCCCC2CCNCC2)cc1)CS(=O)(=O)Cc1ccccc1` (centres unmarked) [CH2 SO2 CH2 Ph, 2-[4-(4-N-piperidin-4-ylbutyloxy]phenylmethyl]-3-(benzylsulfonyl)propanoic acid]: the 50% inhibitory concentration (IC50) in the experiment with human platelets stood at 1.6 µM.
In the case of `COC(=O)C(Cc1ccc(OCCCCC2CCNCC2)cc1)C(=O)O` (centres unmarked) [CO2 CH3, 2-(Carbomethoxy)-3-[4-(4-piperidin-4-yl)butyloxyphenyl]propanoic acid], the half-maximal inhibitory concentration (IC50) with human platelets worked out at 5.8 µM.
In the case of `O=C(O)C(Cc1ccc(OCCCCC2CCNCC2)cc1)C(=O)O` [CO2 H, 2-Carboxy-3-[4-(4-Piperidin-4-yl)butyloxyphenyl]propanoic acid], in the experiment with human platelets, the half-maximal inhibitory concentration (IC50) is 3.2 µM.
On the same count and under the same terms, as for `O=C(O)C(O)Cc1ccc(OCCCCC2CCNCC2)cc1` (centres unmarked) [OH, 2-Hydroxy-3-[4-(4-piperidin-4-yl)butyloxyphenyl]propanoic acid], the figure is 8.6 µM.
On to Echistatin, for which the “affinity for the gpIIb/IIIa complex” value in the experiment on gpIIb/IIIa complex is listed as “high affinity”.
With “arginine-glycine-aspartic acid [Arg-Gly-Asp]”, the “activity of the tri-peptide” value in experiment [1] is “low activity”.
